Experimental data reported in patent US9446047B2, “Substituted 2,3-dihydro-1H-inden-1-one retinoic acid-related orphan nuclear receptor antagonists for treating multiple sclerosis” (Arrien Pharmaceuticals LLC, priority 2013, dated 2016).

Assays:
[1] = system: IL-17 release from CD4+ T cells; assay: Cytokine IL-17 estimation by HTRF, IL-17 release from CD4+ T cells; type: cell-based; conditions: Homo sapiens, IL-17 release from CD4+ T cells, HTRF, read-out: IL-17 Inhibition
Source text: The assay was designed to assess the potency of test compounds on IL-17 cytokine release from CD4+ T cells. In order to aid in the identification of potent inhibitors, the IC50's determined for the test compounds IL-17 release from CD4+ T cells through the generation of 10 point Dose Response Curves (DRC). Assay methods used to quantify IL-17 secretion is HTRF (Homogenous Time Resolved Fluorescence). IL-17 secreted is detected by anti-IL-17 MAb labeled with XL665, the second MAb labeled with Cryptate, which binds to specific epitopes of human IL-17. Upon close proximity of both acceptor and donor energy transfer (FRET) occurs. This technique has been further enhanced by using long-lived labels combined with the detection on a time-resolved fluorescence basis, allowing […] of prompt fluorescence interferences.
The assay was performed according to manufacturer's instruction. All the reagents were reconstituted according to instructions provided. The reagents were dispensed into a half area 96-well plate in the following order: […] or sample, IL-17 MAbXL665 and 5 μL IL-17 Cryptate. For the negative control, the standard or sample is replaced by […]. The plate is covered with a plate sealer and incubated at rt for 2 h. Following incubation, the plate sealer is removed and the plate is read using HTRF protocol on Envision Microplate reader. All of the data analysis was carried out using Microsoft Excel (2010) and IC50 was determined using GraphPad Prism 4 software. % Inhibition of the test compounds were determined utilizing the following formula: % Inhibition=100−(100*(Average Test Compound Counts−Average Negative Control Counts)/(Average Positive Control Counts−Average Negative Control Counts)).
We have established robust in vitro cell-based HTRF assay for the activation and stimulation of CD4+ T lymphocytes to T helper 17 (Th17) cell differentiation and IL-17 production.

RORγ-LBD (RORγt) = target: T1, RORγ-LBD (RORγt) (Homo sapiens, UniProt P51449); assay: TR-FRET RORγt Binding Assay; conditions: 6-His(GST)RORγ-LBD, SRC1_2 peptide, read-out: RORγt Binding
T1 construct: the 6-His-(GST) RORγ-LBD was used which expressed and purified from baculovirus infected Sf-21 insect cells; made in house; host or cells: baculovirus-infected Sf-21 insect cells
T1 sequence (P51449 269-508 limits assumed): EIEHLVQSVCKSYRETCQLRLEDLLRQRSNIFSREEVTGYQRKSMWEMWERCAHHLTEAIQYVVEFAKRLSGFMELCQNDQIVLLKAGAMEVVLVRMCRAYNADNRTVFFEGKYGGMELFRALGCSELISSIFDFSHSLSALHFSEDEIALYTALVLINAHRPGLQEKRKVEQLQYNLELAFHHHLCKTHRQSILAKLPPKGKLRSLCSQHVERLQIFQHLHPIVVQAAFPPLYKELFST
Method: TR-FRET RORγt Binding Assay: RORγ-LBD contains a 6-His and GST tag peptide from SRC1-2 an aminoterminal biotinyl-[…] was employed and the 6-His-(GST) RORγ-LBD was used which expressed and purified from baculovirus infected Sf-21 insect cells from Invitrogen and purified using glutathione sepharose. […] The peptide binding due to dose-curves of compounds was added the 0.1% DMSO. Fluorescence at wavelength 340 nm was read in each well of […] using an Envision fluorescence reader in Time Resolved mode after overnight incubation at 4° C.

RORγt = target: T2, RORγt (Homo sapiens, UniProt P51449); assay: RORγt-activated IL-17A Prom/LUCPorter HEK 293 cells luciferase reporter assay; type: cell-based; conditions: IL-17A Prom/LUCPorter HEK 293 cells transfected with RORγt, 16 h; read-out: RORγt Cell Specific
T2 construct: host or cells: IL-17A Prom/LUCPorter HEK 293 cell line (IMGENEX, IML-301)
T2 sequence (P51449 1-497 isoform P51449-2): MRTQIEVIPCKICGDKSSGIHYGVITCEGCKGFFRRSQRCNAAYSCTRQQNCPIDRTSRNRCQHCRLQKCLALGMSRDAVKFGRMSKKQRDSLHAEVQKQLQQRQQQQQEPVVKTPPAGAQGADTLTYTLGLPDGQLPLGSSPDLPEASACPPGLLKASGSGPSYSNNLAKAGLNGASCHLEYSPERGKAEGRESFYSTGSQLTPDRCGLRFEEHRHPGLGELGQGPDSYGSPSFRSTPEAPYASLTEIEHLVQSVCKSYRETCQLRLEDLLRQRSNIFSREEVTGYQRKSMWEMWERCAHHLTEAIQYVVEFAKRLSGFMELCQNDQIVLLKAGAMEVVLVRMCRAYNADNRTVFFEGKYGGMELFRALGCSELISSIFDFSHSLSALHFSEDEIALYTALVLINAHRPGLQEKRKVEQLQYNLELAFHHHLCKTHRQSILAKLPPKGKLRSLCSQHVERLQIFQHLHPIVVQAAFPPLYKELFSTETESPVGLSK
Method: Antagonistic (or inverse agonistic) effects of the test compounds on the RORγt-activated IL-17A Prom/LUCPorter™ HEK 293 cells were analyzed and IC50 of each compound was evaluated. […] Luciferase activity was analyzed using the luciferase reporter assay reagent (IMGENEX, LS100). The data were analyzed using Excel and Prism software. Percent activity was defined as 100×(1−(Well−Control A)/(Control B−Control A)), where Control A was the wells containing cells transfected with RORγt and Control B was the wells containing non-transfected cells. Both Controls A and B were treated with vehicle alone.

Row | Structure (SMILES) | IC50 [1] | IC50 (RORγ-LBD (RORγt)) | IC50 (RORγt)
1 | COc1cc2c(cc1N1CCC(F)CC1)CC(Cc1ncccc1C(F)(F)F)C2=O (stereo not drawn) [compound 151, 5-(4-fluoropiperidin-1-yl)-6-methoxy-2-((3-(trifluoromethyl)pyridin-2-yl)methyl)-2,3-dihydro-1H-inden-1-one] | > 1000 nM | > 1000 nM | > 1000 nM
2 | COc1cc2c(c(N3CCC(C)CC3)c1OC)CC(Cc1ncccc1C(F)(F)F)C2=O (stereo not drawn) [compound 133, 5,6-dimethoxy-4-(4-methylpiperidin-1-yl)-2-((3-(trifluoromethyl)pyridin-2-yl)methyl)-2,3-dihydro-1H-inden-1-one] | > 1000 nM | > 1000 nM | > 1000 nM
3 | COc1cc2c(cc1N1CCOCC1)CC(Cc1cc(C)n[nH]1)C2=O (stereo not drawn) [compound 95] | > 1000 nM | > 1000 nM | > 1000 nM
4 | COc1cc2c(cc1N1CCOCC1)CC(Cc1ccc(C(F)(F)F)nc1)C2=O (stereo not drawn) [compound 71, 6-methoxy-5-morpholino-2-((6-(trifluoromethyl)pyridin-3-yl)methyl)-2,3-dihydro-1H-inden-1-one] | > 1000 nM | > 10000 nM | > 10000 nM
5 | COc1cc2c(c(N3CCC(C)CC3)c1OC)CC(Cc1ccc(SC(F)(F)F)cc1)C2=O (stereo not drawn) [compound 131, 5,6-dimethoxy-4-(4-methylpiperidin-1-yl)-2-(4-((trifluoromethyl)thio)benzyl)-2,3-dihydro-1H-inden-1-one] | > 1000 nM | > 1000 nM | > 1000 nM
6 | COc1cc2c(cc1N1CCOCC1)CC(Cc1cccc(C(F)(F)F)c1F)C2=O (stereo not drawn) [compound 80] | > 1000 nM | > 1000 nM | > 1000 nM
7 | COc1cc2c(cc1-c1ccc(OC(F)(F)F)cc1F)CC(Cc1ncccc1C(F)(F)F)C2=O (stereo not drawn) [compound 216] | < 500 nM | > 1000 nM | > 1000 nM
8 | COc1cc2c(c(N3CCN(C)CC3)c1OC)CC(Cc1ncccc1C(F)(F)F)C2=O (stereo not drawn) [compound 128, 5,6-dimethoxy-4-(4-methylpiperazin-1-yl)-2-((3-(trifluoromethyl)pyridin-2-yl)methyl)-2,3-dihydro-1H-inden-1-one] | > 1000 nM | > 1000 nM | > 1000 nM
9 | COc1cc2c(cc1N1CCOCC1)CC(Cc1cccc(C(O)(C(F)(F)F)C(F)(F)F)n1)C2=O (stereo not drawn) [compound 266] | < 500 nM | < 500 nM | < 500 nM
10 | CCS(=O)(=O)Oc1cc2c(cc1OC)CC(Cc1ccc(SC(F)(F)F)cc1)C2=O (stereo not drawn) [compound 188] | < 500 nM | < 500 nM | > 1000 nM
11 | COc1cc2c(cc1Cl)CC(Cc1ncccc1C(F)(F)F)C2=O (stereo not drawn) [compound 174] | < 500 nM | > 1000 nM | > 1000 nM
12 | COc1cc2c(c(N3CCOCC3)c1OC)CC(Cc1ncccc1C(F)(F)F)C2=O (stereo not drawn) [compound 123, 5,6-dimethoxy-4-morpholino-2-((3-(trifluoromethyl)pyridin-2-yl)methyl)-2,3-dihydro-1H-inden-1-one] | > 1000 nM | > 1000 nM | > 1000 nM
13 | COc1cc2c(cc1N1CCOCC1)CC(Cc1sc(N3CCOCC3)nc1Cl)C2=O (stereo not drawn) [compound 47, 2-((4-chloro-2-morpholinothiazol-5-yl)methyl)-6-methoxy-5-morpholino-2,3-dihydro-1H-inden-1-one] | > 1000 nM | > 1000 nM | > 1000 nM
14 | COc1cc2c(cc1N1CCN(C)CC1)CC(Cc1cncc(C(O)(C(F)(F)F)C(F)(F)F)c1)C2=O (stereo not drawn) [compound 256] | < 500 nM | < 500 nM | < 500 nM
15 | COc1ccc2c(c1Cl)CC(Cc1ccc(SC(F)(F)F)cc1)C2=O (stereo not drawn) [compound 177] | < 500 nM | < 500 nM | > 1000 nM
16 | COc1cc2c(c(N3CCN(C)CC3)c1OC)CC(Cc1ccc(SC(F)(F)F)cc1)C2=O (stereo not drawn) [compound 125, 5,6-dimethoxy-4-(4-methylpiperazin-1-yl)-2-(4-((trifluoromethyl)thio)benzyl)-2,3-dihydro-1H-inden-1-one] | > 1000 nM | > 1000 nM | > 1000 nM
17 | CCS(=O)(=O)Oc1cc2c(cc1OC)CC(Cc1ncccc1C(F)(F)F)C2=O (stereo not drawn) [compound 191] | < 500 nM | < 500 nM | < 500 nM
18 | COc1cc2c(cc1N1CCOCC1)CC(Cc1ccc(Cl)c(C(F)(F)F)c1)C2=O (stereo not drawn) [compound 89] | < 500 nM | > 1000 nM | > 1000 nM
19 | COc1cc2c(cc1N1CCNCC1)CC(Cc1ncccc1C(F)(F)F)C2=O (stereo not drawn) [compound 249] | – | > 1000 nM | < 500 nM
20 | COc1cc2c(cc1N1CCOCC1)CC(Cc1cc(Cl)cc(C(F)(F)F)c1)C2=O (stereo not drawn) [compound 50, 2-(3-chloro-5-(trifluoromethyl)benzyl)-6-methoxy-5-morpholino-2,3-dihydro-1H-inden-1-one] | > 1000 nM | < 500 nM | > 1000 nM
21 | COc1cc2c(cc1N1CCOCC1)CC(Cc1ccc(SC(F)(F)F)cc1)C2=O (stereo not drawn) [compound 74, 6-methoxy-5-morpholino-2-(4-((trifluoromethyl)thio)benzyl)-2,3-dihydro-1H-inden-1-one] | > 1000 nM | > 10000 nM | > 10000 nM
22 | COc1cc2c(cc1N1CCN(C)CC1)CC(Cc1ncccc1C(F)(F)F)C2=O (stereo not drawn) [compound 250] | – | > 1000 nM | –
23 | COc1cc2c(cc1N1CCC(C)CC1)CC(Cc1ccc(SC(F)(F)F)cc1)C2=O (stereo not drawn) [compound 140] | > 10000 nM | < 500 nM | > 1000 nM
24 | COc1cc2c(cc1N1CCOCC1)CC(Cc1cncc(C(O)(C(F)(F)F)C(F)(F)F)c1)C2=O (stereo not drawn) [compound 264] | – | < 500 nM | –
25 | COc1cc2c(cc1N1CCN(C)CC1)CC(Cc1cccc(C(F)(F)F)c1)C2=O (stereo not drawn) [compound 156] | – | > 10000 nM | < 500 nM
26 | COc1cc2c(cc1N1CCOCC1)CC(Cc1c(F)ccc(NC3CCN(C)CC3)c1F)C2=O (stereo not drawn) [compound 44, 2-(2,6-difluoro-3-((1-methylpiperidin-4-yl)amino)benzyl)-6-methoxy-5-morpholino-2,3-dihydro-1H-inden-1-one] | > 10000 nM | – | –
27 | COc1cc2c(cc1N1CCOCC1)CC(Cc1c(F)cccc1F)C2=O (stereo not drawn) [compound 42, 2-(2,6-difluorobenzyl)-6-methoxy-5-morpholino-2,3-dihydro-1H-inden-1-one] | > 1000 nM | > 1000 nM | –
28 | COc1cc2c(cc1N1CCN(C)C(C)C1)CC(CC1CCN(Cc3ccccc3)CC1)C2=O (stereo not drawn) [compound 25, 2-((1-benzylpiperidin-4-yl)methyl)-5-(3,4-dimethylpiperazin-1-yl)-6-methoxy-2,3-dihydro-1H-inden-1-one] | – | – | > 10000 nM
29 | COc1cc2c(cc1N1CCOCC1)CC(Cc1ccc(C(F)(F)F)nc1)C2=O (stereo not drawn) [compound 83] | – | > 1000 nM | > 1000 nM
